Read-outs that look alike come from different tables or passages of the source.
Experiments:
MUSK = test: KINOMEscan; assay type: binding; details: 1000 nM
ERBB3 = test: KINOMEscan; assay type: binding; details: 1000 nM
DCAMKL3 = test: KINOMEscan; assay type: binding; details: 1000 nM
PIK4CB = test: KINOMEscan; assay type: binding; details: 1000 nM
STK16 = test: KINOMEscan; assay type: binding; details: 1000 nM
IRAK4 = test: KINOMEscan; assay type: binding; details: 1000 nM
SGK2 = test: KINOMEscan; assay type: binding; details: 1000 nM
HCK = test: KINOMEscan; assay type: binding; details: 1000 nM
MAP4K5 = test: KINOMEscan; assay type: binding; details: 1000 nM
NIK = test: KINOMEscan; assay type: binding; details: 1000 nM
FLT3(R834Q) = test: KINOMEscan; assay type: binding; details: 1000 nM
KIT(V559D,V654A) = test: KINOMEscan; assay type: binding; details: 1000 nM
PKAC-beta = test: KINOMEscan; assay type: binding; details: 1000 nM
ASK1 = test: KINOMEscan; assay type: binding; details: 1000 nM
WEE1 = test: KINOMEscan; assay type: binding; details: 1000 nM
ULK2 = test: KINOMEscan; assay type: binding; details: 1000 nM
KIT(D816H) = test: KINOMEscan; assay type: binding; details: 1000 nM
LCK = test: KINOMEscan; assay type: binding; details: 1000 nM
[1] = drug enrichment in the tumor; assay type: in vivo, mouse; details: 100 mg/kg
EPHA5 = test: KINOMEscan; assay type: binding; details: 1000 nM
[2] = in vivo pharmacokinetic study; set-up: species or system rats; details: male, Sprague-Dawley, rat, plasma; for MRT inf: read-out: MRT (0- ∞)
FGR = test: KINOMEscan; assay type: binding; details: 1000 nM
FGFR2 = test: KINOMEscan; assay type: binding; details: 1000 nM
ERK8 = test: KINOMEscan; assay type: binding; details: 1000 nM
TBK1 = test: KINOMEscan; assay type: binding; details: 1000 nM
CLK3 = test: KINOMEscan; assay type: binding; details: 1000 nM
CAMK1B = test: KINOMEscan; assay type: binding; details: 1000 nM
CHEK1 = test: KINOMEscan; assay type: binding; details: 1000 nM
[3] = system: ABL1(T315I)-phosphorylated; test: KINOMEscan; assay type: binding; details: 1000 nM
[4] = system: RSK1(Kin.Dom.2-C-terminal); test: KINOMEscan; assay type: binding; details: 1000 nM
[5] = system: RPS6KA5(Kin.Dom.2-C-terminal); test: KINOMEscan; assay type: binding; details: 1000 nM
CDK8 = test: KINOMEscan; assay type: binding; details: 1000 nM
CSK = test: KINOMEscan; assay type: binding; details: 1000 nM
CDKL3 = test: KINOMEscan; assay type: binding; details: 1000 nM
CLK4 = test: KINOMEscan; assay type: binding; details: 1000 nM
DDR2 = test: KINOMEscan; assay type: binding; details: 1000 nM
EPHB2 = test: KINOMEscan; assay type: binding; details: 1000 nM
PRKCI = test: KINOMEscan; assay type: binding; details: 1000 nM
BLK = target: T1, BLK (Homo sapiens, UniProt P51451); test: KINOMEscan; assay type: binding; details: 1000 nM
T1 construct: purchased Invitrogen (Carlsbad, CA, USA)
T1 sequence (P51451 whole entry): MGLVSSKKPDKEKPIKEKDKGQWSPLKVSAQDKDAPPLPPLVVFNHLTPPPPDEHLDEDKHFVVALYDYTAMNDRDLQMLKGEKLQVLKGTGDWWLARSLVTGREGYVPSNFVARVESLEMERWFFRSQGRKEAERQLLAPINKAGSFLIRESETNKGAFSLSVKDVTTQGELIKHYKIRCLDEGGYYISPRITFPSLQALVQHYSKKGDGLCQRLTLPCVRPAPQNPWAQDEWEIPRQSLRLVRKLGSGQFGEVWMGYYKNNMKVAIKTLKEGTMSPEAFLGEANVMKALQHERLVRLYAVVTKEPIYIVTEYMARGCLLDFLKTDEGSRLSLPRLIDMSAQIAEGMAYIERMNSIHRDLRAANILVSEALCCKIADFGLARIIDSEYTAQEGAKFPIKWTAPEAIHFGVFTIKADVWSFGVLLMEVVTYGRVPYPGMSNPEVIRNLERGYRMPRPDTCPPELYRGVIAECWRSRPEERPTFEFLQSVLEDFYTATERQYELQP

[6] = system: RSK4(Kin.Dom.2-C-terminal); test: KINOMEscan; assay type: binding; details: 1000 nM
SIK2 = test: KINOMEscan; assay type: binding; details: 1000 nM
EGFR(L861Q) = test: KINOMEscan; assay type: binding; details: 1000 nM
CSF1R = test: KINOMEscan; assay type: binding; details: 1000 nM
[7] = system: ABL1(F317I)-nonphosphorylated; test: KINOMEscan; assay type: binding; details: 1000 nM
[8] = system: RSK2(Kin.Dom.2-C-terminal); test: KINOMEscan; assay type: binding; details: 1000 nM
ARK5 = test: KINOMEscan; assay type: binding; details: 1000 nM
EGFR = target: T2, EGFR (Homo sapiens, UniProt P00533); test: KINOMEscan; assay type: binding; details: 1000 nM
T2 construct: purchased Invitrogen (Carlsbad, CA, USA)
T2 sequence (P00533 25-1210): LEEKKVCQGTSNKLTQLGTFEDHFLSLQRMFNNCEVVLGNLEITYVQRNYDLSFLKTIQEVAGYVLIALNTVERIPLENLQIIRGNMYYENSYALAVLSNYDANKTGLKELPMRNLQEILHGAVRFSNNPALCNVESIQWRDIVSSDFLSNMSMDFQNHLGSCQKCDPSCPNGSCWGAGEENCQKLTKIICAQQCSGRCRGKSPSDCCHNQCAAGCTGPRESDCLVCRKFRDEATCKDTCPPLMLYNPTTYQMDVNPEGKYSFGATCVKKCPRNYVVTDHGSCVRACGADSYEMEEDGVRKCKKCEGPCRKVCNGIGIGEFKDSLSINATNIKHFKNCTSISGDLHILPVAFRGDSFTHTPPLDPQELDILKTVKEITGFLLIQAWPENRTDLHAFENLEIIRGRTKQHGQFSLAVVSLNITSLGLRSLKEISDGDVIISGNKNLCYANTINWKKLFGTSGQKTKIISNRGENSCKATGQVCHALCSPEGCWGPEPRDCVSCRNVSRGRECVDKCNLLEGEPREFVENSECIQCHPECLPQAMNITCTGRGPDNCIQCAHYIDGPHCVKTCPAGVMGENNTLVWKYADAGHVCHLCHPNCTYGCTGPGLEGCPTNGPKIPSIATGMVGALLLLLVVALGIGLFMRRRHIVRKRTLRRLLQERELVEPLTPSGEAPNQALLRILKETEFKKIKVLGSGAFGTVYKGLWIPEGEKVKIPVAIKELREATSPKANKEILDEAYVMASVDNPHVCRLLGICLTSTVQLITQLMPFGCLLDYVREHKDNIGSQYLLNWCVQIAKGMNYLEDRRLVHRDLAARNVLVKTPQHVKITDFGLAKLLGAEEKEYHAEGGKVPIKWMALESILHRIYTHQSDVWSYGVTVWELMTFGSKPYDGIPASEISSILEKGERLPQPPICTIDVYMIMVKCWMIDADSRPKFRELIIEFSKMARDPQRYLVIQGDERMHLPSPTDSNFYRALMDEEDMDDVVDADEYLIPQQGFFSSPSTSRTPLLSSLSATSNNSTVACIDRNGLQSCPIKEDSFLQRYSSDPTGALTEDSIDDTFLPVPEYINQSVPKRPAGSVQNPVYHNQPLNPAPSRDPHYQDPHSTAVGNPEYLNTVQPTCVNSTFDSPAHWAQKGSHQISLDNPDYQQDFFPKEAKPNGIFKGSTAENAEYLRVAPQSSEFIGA

MYO3B = test: KINOMEscan; assay type: binding; details: 1000 nM
GSK3A = test: KINOMEscan; assay type: binding; details: 1000 nM
CAMK2G = test: KINOMEscan; assay type: binding; details: 1000 nM
EGFR(L747-T751del,Sins) = test: KINOMEscan; assay type: binding; details: 1000 nM
SRC = test: KINOMEscan; assay type: binding; details: 1000 nM
CDK7 = test: KINOMEscan; assay type: binding; details: 1000 nM
NEK11 = test: KINOMEscan; assay type: binding; details: 1000 nM

C=CC(=O)Nc1cc(Nc2cc(-c3cccc(NC(=O)c4cc5c(s4)CCCC5)c3C)cn(C)c2=O)ccc1N1CCN(CC)CC1 [CHMFL-BTK-85]
Percent Control (MUSK): 91%
Percent Control (ERBB3): 95%
Percent Control (DCAMKL3): 100%
Percent Control (PIK4CB): 100%
Percent Control (STK16): 68%
Percent Control (IRAK4): 100%
Percent Control (SGK2): 100%
Percent Control (HCK): 100%
Percent Control (MAP4K5): 100%
Percent Control (NIK): 100%
Percent Control (FLT3(R834Q)): 100%
Percent Control (KIT(V559D,V654A)): 100%
Percent Control (PKAC-beta): 80%
Percent Control (ASK1): 86%
Percent Control (WEE1): 100%
Percent Control (ULK2): 100%
Percent Control (KIT(D816H)): 100%
Percent Control (LCK): 86%
concentration in the tumor [1]: 2370 nM
Percent Control (EPHA5): 100%
AUC(0-inf) ([2]; iv, Rats, I.V. 1mg/kg): 766 ± 261 ng·h/mL
AUC(0-t) ([2]; iv, Rats, I.V. 1mg/kg): 747 ± 263 ng·h/mL
Cmax ([2]; iv, Rats, I.V. 1mg/kg): 1080 ± 390 ng/mL
Tmax ([2]; iv, Rats, I.V. 1mg/kg): 0.02 h
half-life ([2]; iv, Rats, I.V. 1mg/kg): 1.6 ± 0.3 h
MRT inf ([2]; iv, Rats, I.V. 1mg/kg): 1.6 ± 0.2 h
AUC(0-inf) ([2]; po, Rats, P.O. 10mg/kg): 2160 ± 474 ng·h/mL
Cmax ([2]; po, Rats, P.O. 10mg/kg): 296 ± 67 ng/mL
Tmax ([2]; po, Rats, P.O. 10mg/kg): 6 h
bioavailability ([2]; po, Rats, P.O. 10mg/kg): 29%
half-life ([2]; po, Rats, P.O. 10mg/kg): 2.9 h
MRT inf ([2]; po, Rats, P.O. 10mg/kg): 6.5 ± 0.1 h
AUC(0-t) ([2]; rats, oral administration at 10 mg/kg): 2140 ng·h/mL
Percent Control (FGR): 20%
Percent Control (FGFR2): 77%
Percent Control (ERK8): 95%
Percent Control (TBK1): 72%
Percent Control (CLK3): 80%
Percent Control (CAMK1B): 100%
Percent Control (CHEK1): 79%
Percent Control [3]: 100%
Percent Control [4]: 100%
Percent Control [5]: 66%
Percent Control (CDK8): 100%
Percent Control (CSK): 80%
Percent Control (CDKL3): 99%
Percent Control (CLK4): 96%
Percent Control (DDR2): 100%
Percent Control (EPHB2): 84%
Percent Control (PRKCI): 100%
percent of control kinase binding at 1 µM (BLK): 57%
Percent Control [6]: 83%
Percent Control (SIK2): 83%
Percent Control (EGFR(L861Q)): 94%
Percent Control (CSF1R): 90%
Percent Control [7]: 99%
Percent Control [8]: 99%
Percent Control (ARK5): 97%
kinase binding remaining (percent of control) at 1 µM (EGFR): 58%
Percent Control (MYO3B): 92%
Percent Control (GSK3A): 94%
Percent Control (CAMK2G): 100%
Percent Control (EGFR(L747-T751del,Sins)): 93%
Percent Control (SRC): 77%
Percent Control (CDK7): 96%
Percent Control (NEK11): 100%

From article PMC7490411 (Signal Transduction and Targeted Therapy, 2020)
